≈ marks a conversion by molar mass, not a printed value.
Experiments:
Staphylococcus aureus [1] = assay: Antibacterial activity against erythromycin-susceptible Staphylococcus aureus ATCC 25923; assay type: functional
Staphylococcus aureus [2] = assay: Antibacterial activity against penicillin-resistant Staphylococcus aureus ATCC 31007; assay type: functional
Staphylococcus aureus [3] = assay: Antibacterial activity against methicillin-resistant Staphylococcus aureus ATCC 43300; assay type: functional
Bacillus subtilis = assay: Antibacterial activity against penicillin-susceptible Bacillus subtilis ATCC 9372; assay type: functional
Enterococcus faecalis = assay: Antibacterial activity against vancomycin-susceptible Enterococcus faecalis ATCC 29212; assay type: functional
[4] = tested on: Staphylococcus epidermidis; assay: Antibacterial activity erythromycin-susceptible Staphylococcus epidermidis ATCC 12228; assay type: functional
Klebsiella pneumoniae = assay: Antibacterial activity against Klebsiella pneumoniae ATCC 10031; assay type: functional
Acinetobacter baumannii = assay: Antibacterial activity against Acinetobacter baumannii ATCC 19606; assay type: functional
Escherichia coli = assay: Antibacterial activity against penicillin-susceptible Escherichia coli ATCC 25922; assay type: functional
Pseudomonas aeruginosa = assay: Antibacterial activity against penicillin-susceptible Pseudomonas aeruginosa ATCC 27853; assay type: functional
[5] = Hemolytic activity in sheep RBC; assay type: toxicity, cell-based, Ovis aries, Erythrocyte; settings: sheep red blood cells (erythrocytes)
[6] = Selectivity index, ratio of HC50 for hemolytic activity in sheep RBC to MIC for antibacterial activity against methicillin-resistant Staphylococcus aureus ATCC 43300; assay type: toxicity; settings: sheep red blood cells (erythrocytes), read-out: Selectivity Index

Compound	MIC (Staphylococcus aureus [1]) [µg/mL]	MIC (Staphylococcus aureus [2]) [µg/mL]	MIC (Staphylococcus aureus [3]) [µg/mL]	MIC (Bacillus subtilis) [µg/mL]	MIC (Enterococcus faecalis) [µg/mL]	MIC [4] [µg/mL]	MIC (Klebsiella pneumoniae) [µg/mL]	MIC (Acinetobacter baumannii) [µg/mL]	MIC (Escherichia coli) [µg/mL]	MIC (Pseudomonas aeruginosa) [µg/mL]	HC50 [5] [µg/mL]	selectivity ratio [6]
CCCCN(CCCC)CCCNC(=O)COc1c(C(C)=O)ccc2c1C=CC(C)(CCC=C(C)C)O2 (configuration not stated)	16 (≈ 31.2 µM)	16 (≈ 31.2 µM)	8 (≈ 15.6 µM)	4 (≈ 7.8 µM)	32 (≈ 62.4 µM)	32 (≈ 62.4 µM)	128 (≈ 250 µM)	128 (≈ 250 µM)	> 128	> 128	270	33.8
CCN(CC)CCCNCCCOc1c(C(C)=O)ccc2c1C=CC(C)(CCC=C(C)C)O2 (configuration not stated)	8 (≈ 17.5 µM)	16 (≈ 35 µM)	8 (≈ 17.5 µM)	8 (≈ 17.5 µM)	8 (≈ 17.5 µM)	8 (≈ 17.5 µM)	8 (≈ 17.5 µM)	8 (≈ 17.5 µM)	8 (≈ 17.5 µM)	16 (≈ 35 µM)	140	17.5
CC(=O)c1ccc2c(c1OCCCNCCCN1CCN(C)CC1)C=CC(C)(CCC=C(C)C)O2 (configuration not stated)	16 (≈ 33.1 µM)	16 (≈ 33.1 µM)	16 (≈ 33.1 µM)	16 (≈ 33.1 µM)	16 (≈ 33.1 µM)	8 (≈ 16.5 µM)	16 (≈ 33.1 µM)	16 (≈ 33.1 µM)	16 (≈ 33.1 µM)	32 (≈ 66.2 µM)	168	10.5
CC(=O)c1ccc2c(c1OCC(=O)NCCCN1CCCC1)C=CC(C)(CCC=C(C)C)O2 (configuration not stated)	32 (≈ 70.4 µM)	32 (≈ 70.4 µM)	32 (≈ 70.4 µM)	64 (≈ 141 µM)	64 (≈ 141 µM)	64 (≈ 141 µM)	64 (≈ 141 µM)	128 (≈ 282 µM)	> 128	> 128	167	5.2
CNCCCOc1c(C(C)=O)ccc2c1C=CC(C)(CCC=C(C)C)O2 (configuration not stated)	8 (≈ 22.4 µM)	8 (≈ 22.4 µM)	16 (≈ 44.8 µM)	8 (≈ 22.4 µM)	4 (≈ 11.2 µM)	4 (≈ 11.2 µM)	16 (≈ 44.8 µM)	8 (≈ 22.4 µM)	16 (≈ 44.8 µM)	64 (≈ 179 µM)	90.1	–
CCCCN(CCCC)CCCNCCCOc1c2c(c3c(c1C(C)=O)OC(C)(CCC=C(C)C)C=C3)OC(C)(CCC=C(C)C)C=C2 (configuration not stated)	1 (≈ 1.51 µM)	2 (≈ 3.02 µM)	4 (≈ 6.03 µM)	4 (≈ 6.03 µM)	1 (≈ 1.51 µM)	1 (≈ 1.51 µM)	8 (≈ 12.1 µM)	4 (≈ 6.03 µM)	8 (≈ 12.1 µM)	128 (≈ 193 µM)	36.7	9.2
CC(=O)c1ccc2c(c1OCC(=O)NCCN(C)C)C=CC(C)(CCC=C(C)C)O2 (configuration not stated)	64 (≈ 154 µM)	128 (≈ 309 µM)	128 (≈ 309 µM)	64 (≈ 154 µM)	64 (≈ 154 µM)	64 (≈ 154 µM)	32 (≈ 77.2 µM)	64 (≈ 154 µM)	128 (≈ 309 µM)	128 (≈ 309 µM)	316	4.9
CC(=O)c1c(OCCCN2CCSCC2)c2c(c3c1OC(C)(CCC=C(C)C)C=C3)OC(C)(CCC=C(C)C)C=C2 (configuration not stated)	> 128	> 128	> 128	> 128	> 128	> 128	> 128	> 128	> 128	> 128	844	< 6.6
CC(=O)c1ccc2c(c1OCC(=O)NCCCN1CCN(C)CC1)C=CC(C)(CCC=C(C)C)O2 (configuration not stated)	128 (≈ 265 µM)	128 (≈ 265 µM)	128 (≈ 265 µM)	> 128	128 (≈ 265 µM)	128 (≈ 265 µM)	128 (≈ 265 µM)	128 (≈ 265 µM)	> 128	> 128	220	1.7
CC(=O)c1c(OCCCN(C)C)c2c(c3c1OC(C)(CCC=C(C)C)C=C3)OC(C)(CCC=C(C)C)C=C2 (configuration not stated)	2 (≈ 3.83 µM)	2 (≈ 3.83 µM)	4 (≈ 7.67 µM)	2 (≈ 3.83 µM)	1 (≈ 1.92 µM)	1 (≈ 1.92 µM)	> 128	> 128	> 128	> 128	64	16
CCNCCCOc1ccc(/C=C/C(=O)c2ccc3c(c2OC)C=CC(C)(CCC=C(C)C)O3)cc1 (configuration not stated)	8 (≈ 16.3 µM)	8 (≈ 16.3 µM)	8 (≈ 16.3 µM)	8 (≈ 16.3 µM)	4 (≈ 8.17 µM)	1 (≈ 2.04 µM)	32 (≈ 65.4 µM)	> 128	> 128	> 128	59.9	7.5
COLISTIN	128	128	128	16	128	64	1	1	0.5	0.5	–	–
CC(=O)c1ccc2c(c1OCCCN(CCCN(C)C)CCCN(C)C)C=CC(C)(CCC=C(C)C)O2 (configuration not stated)	64 (≈ 125 µM)	64 (≈ 125 µM)	32 (≈ 62.3 µM)	32 (≈ 62.3 µM)	64 (≈ 125 µM)	32 (≈ 62.3 µM)	16 (≈ 31.1 µM)	16 (≈ 31.1 µM)	16 (≈ 31.1 µM)	64 (≈ 125 µM)	325	5.1
CC(=O)c1c(OCCCNCCCN2CCCC2)c2c(c3c1OC(C)(CCC=C(C)C)C=C3)OC(C)(CCC=C(C)C)C=C2 (configuration not stated)	4 (≈ 6.61 µM)	4 (≈ 6.61 µM)	4 (≈ 6.61 µM)	8 (≈ 13.2 µM)	4 (≈ 6.61 µM)	4 (≈ 6.61 µM)	8 (≈ 13.2 µM)	16 (≈ 26.5 µM)	16 (≈ 26.5 µM)	128 (≈ 212 µM)	19.7	4.9
COc1c(C(=O)/C=C/c2ccc(OCCCNCCN(C)C)cc2)ccc2c1C=CC(C)(CCC=C(C)C)O2 (configuration not stated)	8 (≈ 15 µM)	4 (≈ 7.51 µM)	4 (≈ 7.51 µM)	2 (≈ 3.75 µM)	2 (≈ 3.75 µM)	2 (≈ 3.75 µM)	16 (≈ 30 µM)	8 (≈ 15 µM)	4 (≈ 7.51 µM)	128 (≈ 240 µM)	270	67.6
CC(=O)c1c(OCCCNCCN(C)C)c2c(c3c1OC(C)(CCC=C(C)C)C=C3)OC(C)(CCC=C(C)C)C=C2 (configuration not stated)	1 (≈ 1.77 µM)	2 (≈ 3.54 µM)	2 (≈ 3.54 µM)	2 (≈ 3.54 µM)	1 (≈ 1.77 µM)	0.5 (≈ 0.885 µM)	4 (≈ 7.08 µM)	2 (≈ 3.54 µM)	2 (≈ 3.54 µM)	32 (≈ 56.7 µM)	45.2	22.6
CC(=O)c1ccc2c(c1OCCCN1CCOCC1)C=CC(C)(CCC=C(C)C)O2 (configuration not stated)	> 128	> 128	> 128	128 (≈ 310 µM)	> 128	> 128	> 128	128 (≈ 310 µM)	> 128	> 128	560	< 4.4
CC(=O)c1ccc2c(c1OCCCN1CCCC1)C=CC(C)(CCC=C(C)C)O2 (configuration not stated)	32 (≈ 80.5 µM)	16 (≈ 40.2 µM)	16 (≈ 40.2 µM)	16 (≈ 40.2 µM)	16 (≈ 40.2 µM)	8 (≈ 20.1 µM)	8 (≈ 20.1 µM)	32 (≈ 80.5 µM)	> 128	> 128	366	–

Reference: ChEMBL document CHEMBL5614413, “Design, synthesis and biological evaluation of amphiphilic benzopyran derivatives as potent antibacterial agents against multidrug-resistant bacteria” (Eur J Med Chem, 2024)
